Measured values as given in publication PMC11009648, “Development of an orally bioavailable mSWI/SNF ATPase degrader and acquired mechanisms of resistance in prostate cancer” (Proceedings of the National Academy of Sciences of the …, 2024).
Blank lines part the entries; values can stand above or below the molecule they belong to.

Legend:
[1] = tested on: 22Rv1-wild type (WT) cells; assay: CellTiter-Glo cell viability assay in 22Rv1 wild type cells; assay type: cell-based, human; settings: 22Rv1 WT
Procedure: (§1) Cells were seeded onto 96-well plates in appropriate culture media and allowed to adhere overnight prior to treatment. The next day, a nine-point serial dilution of the compounds was prepared and added to the plates. After treatment, the cells were then incubated for an additional 5 d. On the last day of treatment, the CellTiter-Glo cell viability assay (Promega) was then executed in accordance with the manufacturer’s guidelines. The signal (luminescence) from each well was determined using an Infinite M1000 Pro plate reader (Tecan). Relative viability was determined by dividing the signal from each well by the average of the control condition in each experiment. Finally, the data were analyzed and plotted using GraphPad Prism.

22Rv1 AUR-3 cells = assay: CellTiter-Glo cell viability assay in AU-15330-resistant 22Rv1 AUR-3 cells (ABCB1 overexpression); assay type: cell-based, human; settings: for IC50: 22Rv1 AUR-3
Description: (§2) The rising importance of the mSWI/SNF complex as a therapeutic target and the success ([32], [33]) of developing next-generation PROTAC degraders targeting the mSWI/SNF complex prompted us to proactively study potential resistance mechanisms that cancer cells may develop in response to this class of compounds. To achieve this, we cultured 22Rv1 cells in either DMSO or a lethal dose of AU-15330 for 1 mo, refreshing the drug twice a week, until resistant cells emerged. Upon obtaining a population of resistant cells, we unbiasedly characterized the genomic and transcriptomic alterations using whole-exome sequencing and bulk RNA sequencing (RNA-seq), respectively (Fig. 3A).
as §1

22Rv1 AUR-2 cells = assay: CellTiter-Glo cell viability assay in AU-15330-resistant 22Rv1 AUR-2 cells (SMARCA4 mutation); assay type: cell-based, human; settings: dose-response (Fig. S4C)
Description: as §2
as §1, with “On the last day of treatment, the CellTiter-Glo cell viability assay (Promega) was then executed in accordance with the manufacturer’s guidelines.” left out

[2] = tested on: SMARCA4, SMARCA2 and PBRM1 in 22Rv1 AUR-2 cells; assay: Immunoblot of target degradation in 22Rv1 AUR-2 cells; assay type: cell-based, human; settings: 4 h, AU-15330 1 µM, AU-24118 0.1 µM
Procedure: (§3) Lysates were prepared using radioimmunoprecipitation assay buffer (Thermo Fisher) with cOmpleteTM protease inhibitor cocktail tablets (Sigma-Aldrich) added. Total protein for each sample was determined using the DC Protein Assay (Bio-Rad) according to the manufacturer’s instructions. A standardized quantity of protein was resolved using NuPAGE Tris-Acetate Protein Gel (3 to 8%) (Thermo Fisher) or NuPAGE Bis-Tris Protein Gel (4 to 12%) (Thermo Fisher) and probed with primary antibodies as indicated. Following incubation with secondary antibodies conjugated with horseradish peroxidase, membranes were imaged on an Odyssey Fc Imager (LiCOR Biosciences).

[3] = tested on: mutant forms of SMARCA4 in HEK293 cells; assay: Immunoblot of overexpressed flag-tagged mutant SMARCA4 in HEK293 cells; assay type: cell-based, human; settings: 24 h treatment
Description: GFP-SMARCA4 (Addgene, 65391) was used for the SMARCA4 mutation clone. The pLVX-TetOne-Puro-hAXL (Addgene, 124797) backbone was used as a starting point prior to undergoing a series of modifications. The endogenous target gene was removed, and a multiple cloning site (MCS) was inserted downstream of the endogenous promoter. Custom gblocks containing Flag-tagged WT SMARCA4 were synthesized (Integrated DNA Technologies, IDT) and inserted into the MCS. Subsequently, custom gblocks containing SMARCA4-N1540S, SMARCA4-I1551del, or SMARCA4-F1485S were inserted to replace the respective portion of WT SMARCA4. Finally, the TRE3G promoter was replaced with hPGK.
HEK293 cells were seeded overnight and transfected with Lipofectamine 3,000 (Thermo Fisher) according to the manufacturer’s protocol. Media were changed 8 h post transfection and incubated for 48 h prior to conducting further analyses.

[4] = tested on: VCaP castration-resistant tumor model; set-up: method as in PMID 34937944; settings: VCaP CRPC model, AU-15330 60 mg/kg; not an arm of this study; cited from earlier work
[5] = tested on: SMARCA4, PBRM1 and SMARCA2 in 22Rv1-AUR-3 xenografts; assay: 22Rv1-AUR-3 xenograft pharmacodynamics study; settings: 5 d; AU-15330 60 mg/kg retro-orbital; zosuquidar 10, 20 or 40 mg/kg i.p.
Procedure: as §3
For the 22Rv1-AUR-3 model, bilateral subcutaneous dorsal flank tumors were established by injecting 1 × 10^6 cells suspended in a 1:1 mixture of serum-free medium and Matrigel (BD Biosciences). Once tumors reached an average volume of 100 mm^3, mice were randomized and treated with either 60 mg/kg AU-15330 by retro-orbital vein injection 3 times every other day and with or without 10 mg/kg, 20 mg/kg, or 40 mg/kg of zosuquidar by intraperitoneal injection daily for 5 d per week. […] Animals harboring tumors approaching that size were immediately killed. All in vivo studies were approved by the U-M IACUC.

[6] = tested on: VCaP castration-resistant tumor model; assay: CRPC-VCaP xenograft efficacy study; assay type: in vivo; settings: castrated CB17 SCID mice; enzalutamide 10 mg/kg oral gavage five times weekly; AU-24118 15 mg/kg oral gavage three times weekly
Procedure: Six-week-old CB17 (male) SCID mice were obtained from the breeding colony at the U-M. For all studies, tumors were measured two or three times per week using digital calipers, and tumor volumes were calculated using the formula (π/6) (L × W2), where L is length and W is width of the tumor. At study endpoint, mice were killed, and tumors were extracted and weighed. […] Once tumors grew to a palpable size (~400 mm^3), the mice were physically castrated. Once those tumors regained their precastration size, mice were then randomized and treated with either 15 mg/kg AU-24118 or vehicle by oral gavage 3 d per week with or without enzalutamide (10 mg/kg) by oral gavage 5 d per week for 4 wk.
IHC was performed on 4 µm formalin-fixed, paraffin-embedded tissue sections using BRG1 (SMARCA4), AR, FOXA1, ERG and C-Myc. The IHC process was performed on the Ventana ULTRA automated slide staining system using the Omnimap and Ultraview Universal DAB detection kit. The antibody details are provided in SI Appendix, Table S1. The following commercial kits from Roche-Ventana Medical System were used: Discovery CC1 (Cat No. 950-500), Discovery CC2 (Cat No. 950-123), OptiView Universal DAB Detection Kit (Cat No. 760-700), and OmniMap Universal DAB Detection Kit (Cat No. 760-149).
The TUNEL and In Situ Cell Death Detection Kits (TMR Red #12156792910; Roche Applied Science) were used to examine apoptosis, following the manufacturer’s instructions. Briefly, fixed sections were permeabilized with Triton X-100 and then washed in phosphate-buffered saline. Labeling was carried out at 37 °C for 60 min by addition of a reaction buffer that contained enzymes. A Zeiss Axiolmager M1 microscope was used to obtain images.

[7] = Homo sapiens, 22Rv1, 120 h, Fig. 4G/H, 5 d, without zosuquidar
[8] = Homo sapiens, 22Rv1, Fig. S6A, siABCB1
[9] = Homo sapiens, 22Rv1, Fig. S6A, siNT (negative control)
[10] = Fig. 4G/H, 5 d, without zosuquidar

IC50 [1, 7]: 2.3 nM
IC50 ([1]; Homo sapiens, 22Rv1, Fig. S5F): 40.7 nM
IC50 [1, 8]: 48.9 nM
IC50 [1, 9]: 45.5 nM
IC50 (22Rv1 AUR-3 cells; [7]): 28500 nM
IC50 (22Rv1 AUR-3 cells; Homo sapiens, 22Rv1, Fig. S5F): 20500 nM
IC50 (22Rv1 AUR-3 cells; [8]): 990 nM
IC50 (22Rv1 AUR-3 cells; [9]): > 30000 nM
Structure (SMILES): Cc1ncsc1-c1ccc([C@H](C)NC(=O)[C@@H]2C[C@@H](O)CN2C(=O)[C@@H](NC(=O)CN2CCN(c3cc(-c4ccccc4O)nnc3N)CC2)C(C)(C)C)cc1 [AU-15330]
ability to cause a decrease in cell viability (22Rv1 AUR-2 cells): unable
degradation of SMARCA2 and PBRM1, immunoblot [2]: able to degrade SMARCA2 and PBRM1
degradation of SMARCA4, immunoblot [2]: unable to degrade SMARCA4
degradation of overexpressed mutant SMARCA4, immunoblot [3]: resistant to degradation
tumor response as a single agent [4]: more modest effects as a single agent
degradation of target proteins in tumors, immunoblot [5]: unable to degrade any of its target proteins alone

Structure (SMILES): CNC(=O)c1ccc(N2C(=S)N(c3ccc(C#N)c(C(F)(F)F)c3)C(=O)C2(C)C)cc1F [Enzalutamide, enzalutamide, reference compound]
tumor response [6]: moderate tumor growth inhibition

IC50 [1, 10]: 800 nM
IC50 (22Rv1 AUR-3 cells; [10]): > 30000 nM
Structure (SMILES): Cc1cc([C@H](C(=O)N2C[C@H](O)C[C@H]2C(=O)N[C@@H](CC(=O)N2CCC(N3CCC(C#Cc4ccc(C(=O)NC5C(C)(C)C(Oc6ccc(C#N)c(Cl)c6)C5(C)C)cc4)CC3)CC2)c2ccc(-c3scnc3C)cc2)C(C)C)on1 (stereo partly drawn) [ARD-61, reference compound]
sensitivity of AUR-3 cells versus WT (22Rv1 AUR-3 cells; 22Rv1 AUR-3 cells (Fig. S5 E and F)): dramatically less sensitive
